The results in this text go back to US11299493B2, “Heterocyclic compounds and uses thereof” (NUVATION BIO INC., priority 2017, dated 2022).

pIC50: −log10 of the molar value.

One test concerns A549 cells. The test is described as follows: Cytotoxicity assay (resazurin) in A549 cells. Conditions: Homo sapiens, A549, 96 hr, read-out: Cell Viability IC50 A549. Type of test: cell-based. The procedure:
(§1) Cells were allowed to grow at 37° C. for 24 hr in 5% CO2 environment (culture conditions) in a Nuaire incubator (humidified). Serially diluted test compounds (100 μL) within the desired testing concentration ranges were added to the culture plate were further incubated in culture conditions for 72 hr and 96 hr for A427 and A549 respectively. The experiment was terminated at the designated incubation time by replacing the medium with 100 μL of 1 mM of resazurin (R7017; Sigma) prepared in respective culture medium, and the plates were further incubated in culture conditions for 4-6 hr. Fluorescence was recorded using a multimodal plate reader (Biotek Synergy Neo) at an excitation wavelength of 535 nm and emission wavelength of 590 nm to obtain relative fluorescence units. Data analysis was done by subtracting the background fluorescence (only medium blank) value from each reading and then normalizing with the vehicle control (DMSO treated cells) to obtain percent survival/proliferation. Percent survival was then subtracted by 100 to get the percent inhibition of proliferation which was used to calculate IC50 values.

The target in the next test is WEE1 kinase enzyme (Homo sapiens (Human), UniProt P30291). The experiment in a line: WEE1 IC50 determination, LanthaScreen Terbium Labeled TR-FRET kinase assay. Conditions: WEE1 enzyme 1 nM, ATP 10 μM, 1 h. Type of test: biochemical. On the procedure:
IC50 values of compounds against WEE1 kinase enzyme were determined by LanthaScreen™ Terbium Labeled TR-FRET assay. […] After 1 h, […] stop solution containing Terbium labeled antibody (4 nM) (#PV3529, Invitrogen, Life Technologies Grand Island, N.Y.) and EDTA (#E5134, Sigma, St-Louis, Mo.) (20 mM) in TR-FRET dilution buffer (#PV3574, Invitrogen, Life Technologies Grand Island, N.Y.) was added. Readings were taken in a Synergy Neo Plate reader (BioTek, Winooski) at single excitation of 340 nm and Dual emission at 495 nm and 520 nm respectively.
The % activity of test samples was calculated as (Sample−Min)*100/(Max−Min). [Max: DMSO control, complete reaction with enzyme & DMSO and Min: No enzyme & DMSO].
A general note: TR-FRET usually uses a lanthanide donor and a delayed reading to cut background.

The next test relates to A427 cells. The experiment in a line: Cytotoxicity assay (resazurin) in A427 cells. Format: cell-based. Particulars: Homo sapiens, A-427, 72 h, A427, 72 hr, read-out: Cell Viability IC50 A427. The procedure: as §1

Chain of WEE1 kinase enzyme (P30291 whole entry): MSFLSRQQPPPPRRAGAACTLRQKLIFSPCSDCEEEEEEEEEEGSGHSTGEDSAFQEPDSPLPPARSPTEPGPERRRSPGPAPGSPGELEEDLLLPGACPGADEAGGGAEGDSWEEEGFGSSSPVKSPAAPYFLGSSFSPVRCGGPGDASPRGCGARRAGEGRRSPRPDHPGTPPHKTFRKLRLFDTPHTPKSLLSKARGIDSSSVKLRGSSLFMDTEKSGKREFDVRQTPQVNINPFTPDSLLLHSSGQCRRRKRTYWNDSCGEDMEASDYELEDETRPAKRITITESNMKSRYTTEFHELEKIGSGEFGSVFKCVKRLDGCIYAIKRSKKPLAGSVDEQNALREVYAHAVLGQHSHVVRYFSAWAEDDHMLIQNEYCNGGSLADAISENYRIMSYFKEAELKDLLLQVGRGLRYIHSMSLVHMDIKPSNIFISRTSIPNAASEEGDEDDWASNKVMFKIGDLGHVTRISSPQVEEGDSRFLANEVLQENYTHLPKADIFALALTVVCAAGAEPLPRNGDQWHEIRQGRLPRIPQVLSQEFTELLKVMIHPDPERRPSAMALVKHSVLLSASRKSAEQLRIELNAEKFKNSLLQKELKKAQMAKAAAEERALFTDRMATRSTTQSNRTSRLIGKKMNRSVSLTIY

As for `C=CCn1c(=O)c2cnc(Nc3ccc4c(c3)CCNC4)nc2n1-c1cccc(C(C)(C)O)n1` [Example 1.8], the pIC50 (commonly the negative decadic logarithm of the IC50, by convention in mol/L) in the test on A549 cells was 6.26; at WEE1 kinase enzyme, 9.00.

For the molecule `C=CCn1c(=O)c2cnc(Nc3ccc4c(c3)CN(C)CC4)nc2n1-c1cccc(C(C)(C)O)n1` [Example 1.9], the pIC50 in the test on A549 cells was 6.28; on WEE1 kinase enzyme, 9.00.

Turning to `CC(C)n1c(=O)c2cnc(Nc3ccc4c(c3)CNCC4)nc2n1-c1cccc(C(C)(C)O)n1` [Example 1.10], the pIC50 was 6.29 in the test with A549 cells, 8.70 at WEE1 kinase enzyme and 6.47 with A427 cells.

As for `CC(C)(O)c1cccc(-n2c3nc(Nc4ccc5c(c4)CNCC5)ncc3c(=O)n2CC2CC2)n1` [Example 1.11], the negative-log IC50 (pIC50) with A549 cells is 5.93; on WEE1 kinase enzyme it was 8.70; with A427 cells, 6.37.

Consider `CCn1c(=O)c2cnc(Nc3ccc4c(c3)CNCC4(C)C)nc2n1-c1cccc(C(C)(C)O)n1` [Example 1.13], for which the figures for the negative-log IC50 (pIC50) in the test on A549 cells, on WEE1 kinase enzyme and in the test on A427 cells were 6.05, 8.82 and 6.00, respectively.

For the molecule `CCn1c(=O)c2cnc(Nc3ccc4c(c3)CN(C(=O)CO)CC4(C)C)nc2n1-c1cccc(C(C)(C)O)n1` [Example 1.14], the values for the pIC50 in the test with A549 cells and on WEE1 kinase enzyme were 5.79 and 9.00, respectively.

Turning to `CC(C)n1c(=O)c2cnc(Nc3ccc4c(c3)CNCC43CC3)nc2n1-c1ccnc(C(C)(C)C)c1` [Example 1.161], the pIC50 on WEE1 kinase enzyme was 8.40; in the test on A427 cells, 6.62.

In the case of `CC(C)n1c(=O)c2cnc(Nc3ccc4c(c3)CNCC4(C)C)nc2n1-c1ccnc(C(C)(C)C)c1` [Example 1.162], the negative-log IC50 (pIC50) on WEE1 kinase enzyme was 7.96; in the test with A427 cells, 6.41.

`CC(C)n1c(=O)c2cnc(Nc3ccc4c(c3)CCNC4)nc2n1-c1ccnc(C(C)(C)F)c1` [Example 1.163]: the negative logarithm of the IC50 (pIC50) at WEE1 kinase enzyme was 7.82; with A427 cells, 6.14.

With `CC(C)n1c(=O)c2cnc(Nc3ccc4c(c3)CC(N(C)C)C4)nc2n1-c1ccnc(C(C)(C)C)c1` (stereo not shown) [Example 1.164], the pIC50 on WEE1 kinase enzyme is 8.10; with A427 cells, 6.31.

Turning to `CC(C)n1c(=O)c2cnc(Nc3ccc4c(c3)CNC4)nc2n1-c1ccnc(C(C)(C)C)c1` [Example 1.165], the negative logarithm of the IC50 (pIC50) on WEE1 kinase enzyme is 7.85; with A427 cells it was 5.80.

With `CC(C)n1c(=O)c2cnc(Nc3ccc4c(c3)CCNC4)nc2n1-c1ccc(F)cc1` [Example 1.166], the pIC50 at WEE1 kinase enzyme was 7.54; in the test with A427 cells, 5.38.

For the molecule `CC(C)n1c(=O)c2cnc(Nc3ccc4c(c3)CNCC4)nc2n1-c1ccc(F)cc1` [Example 1.167], the negative logarithm of the IC50 (pIC50) was 7.39 on WEE1 kinase enzyme and 5.69 in the test on A427 cells.

As for `CC(C)n1c(=O)c2cnc(Nc3ccc4c(c3)NCCC4)nc2n1-c1ccnc(C(C)(C)F)c1` [Example 1.168], the values for the pIC50 at WEE1 kinase enzyme and with A427 cells were 5.38 and 5.40, respectively.

Turning to `CC(C)n1c(=O)c2cnc(Nc3ccc4c(c3)CNCC4)nc2n1-c1ccnc(C(C)(C)F)c1` [Example 1.169], the negative-log IC50 (pIC50) was 7.80 on WEE1 kinase enzyme and 5.56 with A427 cells.

For the molecule `CC(C)n1c(=O)c2cnc(Nc3ccc4c(c3)CCC(N(C)C)C4)nc2n1-c1ccnc(C(C)(C)C)c1` (stereo not shown) [Example 1.170, 1-(2-tert-butylpyridin-4-yl)-6-{[6-(dimethylamino)-5,6,7,8-tetrahydronaphthalen-2-yl]amino}-2-(propan-2-yl)-1H,2H,3H-pyrazolo[3,4-d]pyrimidin-3-one], the pIC50 is 7.92 on WEE1 kinase enzyme and 6.11 in the test with A427 cells.

Turning to `CC(C)n1c(=O)c2cnc(Nc3ccc4c(c3)CC(N(C)C)CC4)nc2n1-c1ccnc(C(C)(C)C)c1` (stereo not shown) [Example 1.171], the figures for the pIC50 on WEE1 kinase enzyme and with A427 cells were 8.22 and 6.13, respectively.

As for `CC(C)n1c(=O)c2cnc(Nc3ccc4c(c3)CCNC4)nc2n1-c1ccnc(N(C)C)c1` [Example 1.172], the negative-log IC50 (pIC50) at WEE1 kinase enzyme is 7.92; in the test on A427 cells, 5.87.

`COC(=O)N1CCc2cc(Nc3ncc4c(=O)n(C(C)C)n(-c5ccnc(C(C)(C)C)c5)c4n3)ccc2C1` [Example 1.173]: the pIC50 on WEE1 kinase enzyme is 6.46; with A427 cells, 5.63.

On to `CC(C)(C)c1cc(-n2c3nc(Nc4ccc5c(c4)CNCC5)ncc3c(=O)n2CC(F)(F)F)ccn1` [Example 1.174], for which the results for the pIC50 on WEE1 kinase enzyme and in the test with A427 cells were 6.97 and 5.40, respectively.

Consider `CC(C)n1c(=O)c2cnc(Nc3ccc4c(c3)CCNC4)nc2n1-c1ccc(N(C)C)c(C(C)(C)C)c1` [Example 1.175], for which the results for the pIC50 at WEE1 kinase enzyme and in the test on A427 cells were 6.81 and 5.94, respectively.

`CC(C)n1c(=O)c2cnc(Nc3ccc4c(c3)CCNC4(C)C)nc2n1-c1ccnc(C(C)(C)C)c1` [Example 1.176]: the values for the negative-log IC50 (pIC50) at WEE1 kinase enzyme and in the test with A427 cells were 8.10 and 6.23, respectively.

Regarding `CC(C)n1c(=O)c2cnc(Nc3ccc4c(c3)CCNC4)nc2n1-c1ccnc(N(C)S(C)(=O)=O)c1` [Example 1.177], the figures for the negative-log IC50 (pIC50) at WEE1 kinase enzyme and with A427 cells were 7.92 and 5.71, respectively.

`CC(C)n1c(=O)c2cnc(Nc3ccc4c(c3)CCNC4)nc2n1-c1ccnc(C(C)(C)O)c1` [Example 1.178]: the figures for the pIC50 at WEE1 kinase enzyme and in the test on A427 cells were 7.85 and 5.21, respectively.

With `CC(C)n1c(=O)c2cnc(Nc3ccc4c(c3)CCNC4)nc2n1-c1ccc(F)c(C(C)(C)O)c1` [Example 2.185], the negative logarithm of the IC50 (pIC50) on WEE1 kinase enzyme is 7.47; in the test on A427 cells it was 5.81.

Regarding `CC(C)n1c(=O)c2cnc(Nc3ccc4c(c3)CNCC4)nc2n1-c1ccc(F)c(C(C)(C)O)c1` [Example 2.186], the pIC50 is 7.62 on WEE1 kinase enzyme and 6.04 with A427 cells.

On to `CC(C)n1c(=O)c2cnc(Nc3ccc4c(c3)CCNC4(C)C)nc2n1-c1ccnc(C(C)(C)F)c1` [Example 2.187], for which the negative-log IC50 (pIC50) is 7.92 on WEE1 kinase enzyme and 6.36 with A427 cells.

As to `CC(C)n1c(=O)c2cnc(Nc3ccc4c(c3)CNCC4)nc2n1-c1ccn(C2CC2)n1` [Example 2.189], the pIC50 at WEE1 kinase enzyme was 7.37; with A427 cells it was 5.70.

Consider `CC(C)n1c(=O)c2cnc(Nc3ccc4c(c3)CNCC4)nc2n1-c1cc(C(C)(C)C)ccn1` [Example 2.287], for which the negative logarithm of the IC50 (pIC50) was 6.92 on WEE1 kinase enzyme and 5.71 in the test on A427 cells.

With `CC(C)n1c(=O)c2cnc(Nc3ccc4c(c3)CCNC4)nc2n1-c1cc(C(C)(C)C)ccn1` [Example 2.288], the figures for the pIC50 on WEE1 kinase enzyme and in the test on A427 cells were 6.66 and 5.59, respectively.

For the molecule `CC(C)n1c(=O)c2cnc(Nc3ccc4c(c3)CCNC4)nc2n1-c1ccn(C)n1` [Example 2.289], the negative logarithm of the IC50 (pIC50) was 7.31 at WEE1 kinase enzyme and 5.06 with A427 cells.

Consider `CC(C)n1c(=O)c2cnc(Nc3ccc4c(c3)CCNC4)nc2n1-c1ccc(F)cn1` [Example 2.290], for which the negative-log IC50 (pIC50) on WEE1 kinase enzyme was 7.05; in the test with A427 cells, 5.47.

Regarding `CC(C)n1c(=O)c2cnc(Nc3ccc4c(c3)CNCC4)nc2n1-c1ccc(F)cn1` [Example 2.291], the pIC50 on WEE1 kinase enzyme is 7.34; in the test with A427 cells, 5.10.

`CC(C)n1c(=O)c2cnc(Nc3ccc4c(c3)CNCC4)nc2n1-c1ccn(C)n1` [Example 2.292]: the figures for the negative logarithm of the IC50 (pIC50) at WEE1 kinase enzyme and with A427 cells were 7.37 and 4.88, respectively.

Turning to `COC(C)(C)c1cc(-n2c3nc(Nc4ccc5c(c4)CCNC5)ncc3c(=O)n2C(C)C)ccn1` [Example 2.293], the negative logarithm of the IC50 (pIC50) is below 5.44 at WEE1 kinase enzyme and below 4.52 with A427 cells.

For the molecule `CC(C)(F)c1cc(-n2c3nc(Nc4ccc5c(c4)CNCC5(C)C)ncc3c(=O)n2C2CC2)ccn1` [Example 2.605], the figures for the pIC50 on WEE1 kinase enzyme and with A427 cells were 6.91 and 5.22, respectively.

On to `CC(C)n1c(=O)c2cnc(Nc3ccc4c(c3)CCNC4(C)C)nc2n1-c1cccc(N(C)S(C)(=O)=O)n1` [Example 2.642], for which the negative logarithm of the IC50 (pIC50) at WEE1 kinase enzyme is 8.22; in the test with A427 cells it was 5.61.

For `CC(C)n1c(=O)c2cnc(Nc3ccc4c(c3)CCNC4(C)C)nc2n1-c1ccn(C2CC2)n1` [Example 2.643], the values for the pIC50 at WEE1 kinase enzyme and in the test on A427 cells were 7.59 and 5.66, respectively.

Regarding `CC(C)n1c(=O)c2cnc(Nc3ccc4c(c3)CCN(C)C4)nc2n1-c1ccnc(C(C)(C)C)c1` [Example 2.644], the pIC50 is 8.30 at WEE1 kinase enzyme and 5.63 with A427 cells.

Regarding `CC(C)n1c(=O)c2cnc(Nc3ccc4c(c3)CCNC4)nc2n1-c1cccc(N(C)S(C)(=O)=O)n1` [Example 2.645], the pIC50 was 8.30 on WEE1 kinase enzyme and 5.40 in the test on A427 cells.

On to `CC(C)n1c(=O)c2cnc(Nc3ccc4c(c3)CNCC4(C)C)nc2n1-c1ccn(C2CC2)n1` [Example 2.646], for which the negative logarithm of the IC50 (pIC50) at WEE1 kinase enzyme was 7.82; in the test on A427 cells, 5.36.

`CC(C)n1c(=O)c2cnc(Nc3ccc4c(c3)CCNC4)nc2n1-c1ccsc1` [Example 2.647]: the pIC50 was 8.00 on WEE1 kinase enzyme and 5.58 in the test with A427 cells.

Turning to `CC(C)n1c(=O)c2cnc(Nc3ccc4c(c3)CNCC4)nc2n1-c1cccc(C(C)(C)C#N)n1` [Example 3.035], the pIC50 is 8.70 on WEE1 kinase enzyme and 6.38 with A427 cells.

For `CC(C)n1c(=O)c2cnc(Nc3ccc4c(c3)CCNC4)nc2n1-c1cccc(C(C)(C)C#N)n1` [Example 3.036], the pIC50 on WEE1 kinase enzyme is 8.30; with A427 cells it was 6.60.
